The values below come from patent US20070299084A1, “Indole Derivatives Useful for Treating Resistance to Antitumor Agents” (NIKEM RESE S.R.L., priority 2004, published 2007).

For assay [1], the system named is HT29/Mit cells (mitoxantrone-resistant human colon carcinoma, BCRP overexpression). Description: Antiproliferative activity, 72 h treatment, SRB assay, HT29/Mit. The protocol: HT29 and HT29/Mit (line obtained by prolonged exposure to mitoxantrone, and characterised by overerexpression of BCRP, which confers cross resistance to topotecan, irinotecan and to its metabolite SN38): maintained in McCoy 5A medium+10% FCS.
The cells (HT29 and HT29/Mit:. 40,000 cells/ml, LoVo, LoVo/Dx and HCT116: 50,000 cells/ml) are seeded in 100 μl of the respective culture media in 96-well plates. 24 hours after seeding, an aliquot (10 μl) of drug at the various concentrations is added. In the samples in which the effect of the combination of two compounds is to be tested the inhibitor is added immediately before the cytotoxic. For each dose or combination of doses/drugs the effect of the treatment is determined in 4-8 replicates.
After 72 hours of treatment the antiproliferative effect is evaluated using the sulforhodamine B (SRB) assay: the cells are fixed by adding 25 μl of 50% TCA to each well and left for 1 hour at 4° C. After washing them with water and allowing them to dry, 100 μl of 0.4% SRB in 1% acetic acid are added and left for 30 minutes at room temperature. After 4 washes in 1% acetic acid, they are left to dry, then the dye fixed by the proteins is dissolved under basic conditions with 100 μl 10 mM cold Tris and the solution is read using a spectrophotometer at 550 nm.
Percentage cell growth is calculated as the optical density of treated samples compared to the optical density of controls (untreated cells).
The Combination Index (C.I.) was determined according to Kern's method, 1988 (who continued from Drewinko B, 1976) (Kern D. H., Cancer Res. 48, 117-121, 1988; Drewinko B., Cancer Biochem. Biophys. 1, 187-195, 1976) by means of the following formula: […], where SFa and SFb are the fractions of cells surviving to treatment with compound a and b, respectively; SFab is the fraction surviving to the combination of compounds a and b.

Assay [2] has as its system H460 spontaneous lung metastasis. Description: H460 xenograft, spontaneous lung metastasis (antimetastatic activity). Type of assay: in vivo, athymic Swiss nude mice. The following applies: topotecan 1 mg/kg, compound of example 2 30 mg/kg p.o. The protocol:
At day 63, tumor-bearing mice were sacrificed by cervical dislocation and their lungs were removed and weighed. Lung lobes were spliced between two glass slides and the metastatic nodules were macroscopically counted against a bright light (Corti C, J. Cancer Res. Clin. Oncol. 122, 154-60, 1996). […] Reading of metastasis was performed by two independent observers, unaware of the experimental group, with an interobserver reproducibility >95%. The metastatic nature of these areas was confirmed by histological analysis of digital images obtained by Image Analysis System software (Delta System, Rome, Italy).

For `CCOc1cc(C(=O)NC2CC(C)(C)NC(C)(C)C2)ccc1-c1cc2cc(Cl)c(Cl)cc2[nH]1` [Example 2], the “Effect on antiproliferative activity of topotecan” value in assay [1] (HT29/Mit model, subtoxic and subactive concentrations (<1 μM) of compound of example 2) is on record as “enhanced antiproliferative activity of topotecan”. Further, the “Effect on cell growth of compound of example 2 alone” value in assay [1] (HT29/Mit, 72 hours, 0.5 μM) is recorded as “does not itself inhibit cell growth”. The IC50 in assay [1] (Homo sapiens, HT-29, 72 h, read-out: Antiproliferative activity (IC50 ± S.D., μM) HT-29/Mit) is 0.9 ± 0.2 µM. In addition, the “Lung No. Metastasis (range)” value in assay [2] (day 63) is on record as “reduced”; in assay [2] (day 63, listed as Compound of example 2), 15 (3-56). Further, the “Lung Weight (mg) (mean ± S.D.)” value in assay [2] (day 63) was 177 ± 30 mg. Also, the “Lung metastasis Inhibition %” value in assay [2] (inhibition of number of metastasis vs controls) worked out at 42%.
